Test results as given in patent publication US8383679B2, “Crystal form of calcium 3-acetylaminopropane-1-sulfonate” (Merck Patent Gesellschaft mit beschränkter Haftung, priority 2008, dated 2013).

Legend:
[1] = Suspension-conversion experiments; assay type: physicochemical; settings: suspension of crystals
From the text: Suitable suspension media are solvents in which the active compound is soluble, where the active compound is employed in a weight ratio in relation to the respective solvent in the suspension in which the solubility limit of the active compound in the solvent is exceeded, so that the active compound is predominantly in the form of a solid in the suspension. Suitable suspension media are, for example, water, methanol and/or tetrahydrofuran (THE), where water is particularly preferred.

[2] = Enthalpy of solution, 2225 Thermometrics Solution calorimeter; assay type: physicochemical

Row | Structure (SMILES) | conversion of crystal form in suspension [1] | enthalpy of solution ([2]; in water at 25° C.) [J/g] | thermodynamic stability (free Gibbs enthalpy) relative to the other crystal form ([2]; concluded from enthalpies of solution) | difference in enthalpy of solution between form II and form I ([2]; in water at 25° C.) [J/g]
1 | CC(=O)NCCCS(=O)(=O)O [form I, calcium 3-acetylaminopropane-1-sulfonate] | rearrangement to crystal form II | -23.1 ± 0.2 | – | –
2 | CC(=O)NCCCS(=O)(=O)O [form II, calcium 3-acetylaminopropane-1-sulfonate] | – | 16.2 ± 0.2 | thermodynamically more stable than form I | 6.9 ± 0.4
